The source made the active and inactive calls. The calls are words filed in the database; no cut-off is given here.

For assay [1], the system named is HCT-116. As to the kind of experiment: Induction of apoptosis in human HCT116 cells assessed as DNA content at G1 phase at 20 uM after 24 hrs by annexin V-FITC/propidium iodide staining-based flow cytometric analysis (reference value: 8%). The class given is functional. In general terms: In flow cytometry, cells or beads pass a laser one at a time.
For assay [2], the target named is Epidermal growth factor receptor (Homo sapiens) (UniProt P00533). As to the kind of experiment: Inhibition of human EGFR.
Sequence of Epidermal growth factor receptor (Homo sapiens) (P00533 whole entry): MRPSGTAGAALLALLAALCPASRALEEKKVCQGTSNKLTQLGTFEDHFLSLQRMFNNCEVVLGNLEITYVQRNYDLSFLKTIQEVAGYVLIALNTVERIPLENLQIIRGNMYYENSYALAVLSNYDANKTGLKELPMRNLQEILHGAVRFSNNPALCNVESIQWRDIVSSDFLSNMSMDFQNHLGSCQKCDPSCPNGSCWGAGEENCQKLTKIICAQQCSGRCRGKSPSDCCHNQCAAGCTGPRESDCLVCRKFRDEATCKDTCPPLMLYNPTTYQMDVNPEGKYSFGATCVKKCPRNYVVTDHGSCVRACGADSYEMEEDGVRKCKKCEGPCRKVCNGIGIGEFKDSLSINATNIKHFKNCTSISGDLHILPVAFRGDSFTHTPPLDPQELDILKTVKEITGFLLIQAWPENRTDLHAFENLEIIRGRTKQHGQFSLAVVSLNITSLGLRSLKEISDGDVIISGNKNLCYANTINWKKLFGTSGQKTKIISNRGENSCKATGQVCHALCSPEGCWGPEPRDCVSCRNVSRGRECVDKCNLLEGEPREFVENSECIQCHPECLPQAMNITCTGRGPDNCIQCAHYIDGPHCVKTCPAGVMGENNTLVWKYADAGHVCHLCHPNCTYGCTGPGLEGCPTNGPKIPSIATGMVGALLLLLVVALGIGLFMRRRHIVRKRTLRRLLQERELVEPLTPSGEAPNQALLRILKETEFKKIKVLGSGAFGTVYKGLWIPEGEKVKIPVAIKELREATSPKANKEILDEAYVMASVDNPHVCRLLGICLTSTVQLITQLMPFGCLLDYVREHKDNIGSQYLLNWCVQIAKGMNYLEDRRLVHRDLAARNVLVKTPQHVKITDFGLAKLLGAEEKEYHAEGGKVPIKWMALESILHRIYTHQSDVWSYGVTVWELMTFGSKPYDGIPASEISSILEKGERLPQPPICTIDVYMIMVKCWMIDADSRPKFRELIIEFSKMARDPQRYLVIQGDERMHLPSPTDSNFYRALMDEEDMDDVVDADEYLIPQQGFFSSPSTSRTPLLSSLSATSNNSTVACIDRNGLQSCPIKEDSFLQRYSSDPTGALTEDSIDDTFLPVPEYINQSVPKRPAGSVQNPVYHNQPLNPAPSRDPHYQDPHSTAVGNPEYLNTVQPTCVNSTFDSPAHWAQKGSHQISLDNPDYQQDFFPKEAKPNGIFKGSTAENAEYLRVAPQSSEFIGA
Assay [3] addresses T1, Interleukin-1 receptor-associated kinase 4 (Homo sapiens) (UniProt Q9NWZ3).
T1 sequence (whole entry): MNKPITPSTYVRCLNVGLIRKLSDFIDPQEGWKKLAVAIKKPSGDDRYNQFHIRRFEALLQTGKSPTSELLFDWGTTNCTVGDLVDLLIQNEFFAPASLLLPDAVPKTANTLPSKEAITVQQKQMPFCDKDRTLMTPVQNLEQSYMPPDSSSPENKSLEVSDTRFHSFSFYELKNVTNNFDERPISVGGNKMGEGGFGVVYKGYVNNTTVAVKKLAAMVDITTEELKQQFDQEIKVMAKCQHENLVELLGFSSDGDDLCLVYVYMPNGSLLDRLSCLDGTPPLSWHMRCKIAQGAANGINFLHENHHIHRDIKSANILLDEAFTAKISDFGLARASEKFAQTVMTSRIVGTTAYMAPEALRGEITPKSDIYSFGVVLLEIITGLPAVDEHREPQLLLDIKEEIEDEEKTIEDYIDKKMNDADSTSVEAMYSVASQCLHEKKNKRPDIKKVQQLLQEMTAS
Nature of the assay: Inhibition of human IRAK4.

The target in assay [4] is Aurora kinase B (Homo sapiens) (UniProt Q96GD4). Nature of the assay: Inhibition of human aurora-B. The following applies: concentration not given here.
Sequence of Aurora kinase B (Homo sapiens) (Q96GD4 whole entry, the tested form may be a part): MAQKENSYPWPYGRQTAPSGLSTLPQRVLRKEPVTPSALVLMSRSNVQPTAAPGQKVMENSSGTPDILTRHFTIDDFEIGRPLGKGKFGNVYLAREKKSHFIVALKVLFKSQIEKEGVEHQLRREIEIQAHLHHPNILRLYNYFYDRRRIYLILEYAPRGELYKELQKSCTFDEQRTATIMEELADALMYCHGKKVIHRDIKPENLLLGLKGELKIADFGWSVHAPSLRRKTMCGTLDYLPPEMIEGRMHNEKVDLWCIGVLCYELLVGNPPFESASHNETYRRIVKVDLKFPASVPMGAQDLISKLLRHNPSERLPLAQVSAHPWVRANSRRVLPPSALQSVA
Assay [5] concerns the target T2, Discoidin domain-containing receptor 2 (Homo sapiens) (UniProt Q16832).
T2 sequence (whole entry): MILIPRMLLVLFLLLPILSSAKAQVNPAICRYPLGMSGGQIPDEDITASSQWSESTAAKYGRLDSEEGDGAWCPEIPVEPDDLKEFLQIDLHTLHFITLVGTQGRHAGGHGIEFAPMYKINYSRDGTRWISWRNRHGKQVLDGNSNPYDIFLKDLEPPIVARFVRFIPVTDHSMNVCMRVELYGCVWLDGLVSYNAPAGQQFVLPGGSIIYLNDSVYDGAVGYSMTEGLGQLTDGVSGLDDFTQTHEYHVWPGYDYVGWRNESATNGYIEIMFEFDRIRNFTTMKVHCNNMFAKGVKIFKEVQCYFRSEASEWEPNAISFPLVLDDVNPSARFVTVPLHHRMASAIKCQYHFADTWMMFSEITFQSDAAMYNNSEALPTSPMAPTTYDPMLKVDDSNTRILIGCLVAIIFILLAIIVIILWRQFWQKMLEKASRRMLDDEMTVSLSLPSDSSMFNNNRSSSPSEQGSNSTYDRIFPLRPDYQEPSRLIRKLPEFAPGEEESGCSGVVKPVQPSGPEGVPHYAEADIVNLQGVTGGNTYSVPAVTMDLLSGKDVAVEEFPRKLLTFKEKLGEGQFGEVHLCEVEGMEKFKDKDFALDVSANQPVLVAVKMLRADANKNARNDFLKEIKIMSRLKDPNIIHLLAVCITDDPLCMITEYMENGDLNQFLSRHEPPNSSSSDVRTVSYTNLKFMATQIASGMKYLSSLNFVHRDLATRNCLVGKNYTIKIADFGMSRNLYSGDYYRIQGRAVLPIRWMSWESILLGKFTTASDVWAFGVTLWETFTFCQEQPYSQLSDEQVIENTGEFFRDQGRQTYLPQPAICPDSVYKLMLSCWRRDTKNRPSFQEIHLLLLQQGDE
Nature of the assay: Inhibition of human DDR2.

Assay [6] addresses T3, Ephrin type-B receptor 3 (Homo sapiens) (UniProt P54753).
T3 sequence (whole entry): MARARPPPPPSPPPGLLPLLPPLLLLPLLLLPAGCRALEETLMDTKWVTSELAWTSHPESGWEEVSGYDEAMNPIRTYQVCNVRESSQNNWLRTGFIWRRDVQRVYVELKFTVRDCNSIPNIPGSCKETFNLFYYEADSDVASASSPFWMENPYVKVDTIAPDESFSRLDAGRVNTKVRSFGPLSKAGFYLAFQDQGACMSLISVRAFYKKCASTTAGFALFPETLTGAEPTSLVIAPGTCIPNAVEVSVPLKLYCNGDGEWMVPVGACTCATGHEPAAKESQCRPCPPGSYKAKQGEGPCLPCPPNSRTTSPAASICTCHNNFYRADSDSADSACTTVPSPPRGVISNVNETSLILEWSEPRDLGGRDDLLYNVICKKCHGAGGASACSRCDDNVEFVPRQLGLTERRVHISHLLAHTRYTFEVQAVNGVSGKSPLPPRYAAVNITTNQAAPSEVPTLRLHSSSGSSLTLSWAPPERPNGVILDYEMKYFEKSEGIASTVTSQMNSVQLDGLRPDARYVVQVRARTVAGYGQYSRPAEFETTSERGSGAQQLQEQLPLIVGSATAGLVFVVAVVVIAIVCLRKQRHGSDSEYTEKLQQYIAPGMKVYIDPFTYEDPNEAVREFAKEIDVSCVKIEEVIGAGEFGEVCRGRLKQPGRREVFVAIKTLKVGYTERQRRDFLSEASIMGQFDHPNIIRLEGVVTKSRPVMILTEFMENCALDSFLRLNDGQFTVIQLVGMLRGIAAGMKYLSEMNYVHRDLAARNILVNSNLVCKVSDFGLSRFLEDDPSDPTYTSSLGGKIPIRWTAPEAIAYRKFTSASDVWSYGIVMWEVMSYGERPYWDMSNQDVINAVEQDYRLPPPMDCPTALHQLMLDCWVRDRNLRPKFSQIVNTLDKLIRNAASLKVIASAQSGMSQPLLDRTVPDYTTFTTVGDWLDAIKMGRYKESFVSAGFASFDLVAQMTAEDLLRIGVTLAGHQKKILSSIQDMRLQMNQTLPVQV
Nature of the assay: Inhibition of human EphB.

The target of assay [7] is Vascular endothelial growth factor receptor 2 (Homo sapiens) (UniProt P35968). As to the kind of experiment: Inhibition of human KDR.
Sequence of Vascular endothelial growth factor receptor 2 (Homo sapiens) (P35968 whole entry): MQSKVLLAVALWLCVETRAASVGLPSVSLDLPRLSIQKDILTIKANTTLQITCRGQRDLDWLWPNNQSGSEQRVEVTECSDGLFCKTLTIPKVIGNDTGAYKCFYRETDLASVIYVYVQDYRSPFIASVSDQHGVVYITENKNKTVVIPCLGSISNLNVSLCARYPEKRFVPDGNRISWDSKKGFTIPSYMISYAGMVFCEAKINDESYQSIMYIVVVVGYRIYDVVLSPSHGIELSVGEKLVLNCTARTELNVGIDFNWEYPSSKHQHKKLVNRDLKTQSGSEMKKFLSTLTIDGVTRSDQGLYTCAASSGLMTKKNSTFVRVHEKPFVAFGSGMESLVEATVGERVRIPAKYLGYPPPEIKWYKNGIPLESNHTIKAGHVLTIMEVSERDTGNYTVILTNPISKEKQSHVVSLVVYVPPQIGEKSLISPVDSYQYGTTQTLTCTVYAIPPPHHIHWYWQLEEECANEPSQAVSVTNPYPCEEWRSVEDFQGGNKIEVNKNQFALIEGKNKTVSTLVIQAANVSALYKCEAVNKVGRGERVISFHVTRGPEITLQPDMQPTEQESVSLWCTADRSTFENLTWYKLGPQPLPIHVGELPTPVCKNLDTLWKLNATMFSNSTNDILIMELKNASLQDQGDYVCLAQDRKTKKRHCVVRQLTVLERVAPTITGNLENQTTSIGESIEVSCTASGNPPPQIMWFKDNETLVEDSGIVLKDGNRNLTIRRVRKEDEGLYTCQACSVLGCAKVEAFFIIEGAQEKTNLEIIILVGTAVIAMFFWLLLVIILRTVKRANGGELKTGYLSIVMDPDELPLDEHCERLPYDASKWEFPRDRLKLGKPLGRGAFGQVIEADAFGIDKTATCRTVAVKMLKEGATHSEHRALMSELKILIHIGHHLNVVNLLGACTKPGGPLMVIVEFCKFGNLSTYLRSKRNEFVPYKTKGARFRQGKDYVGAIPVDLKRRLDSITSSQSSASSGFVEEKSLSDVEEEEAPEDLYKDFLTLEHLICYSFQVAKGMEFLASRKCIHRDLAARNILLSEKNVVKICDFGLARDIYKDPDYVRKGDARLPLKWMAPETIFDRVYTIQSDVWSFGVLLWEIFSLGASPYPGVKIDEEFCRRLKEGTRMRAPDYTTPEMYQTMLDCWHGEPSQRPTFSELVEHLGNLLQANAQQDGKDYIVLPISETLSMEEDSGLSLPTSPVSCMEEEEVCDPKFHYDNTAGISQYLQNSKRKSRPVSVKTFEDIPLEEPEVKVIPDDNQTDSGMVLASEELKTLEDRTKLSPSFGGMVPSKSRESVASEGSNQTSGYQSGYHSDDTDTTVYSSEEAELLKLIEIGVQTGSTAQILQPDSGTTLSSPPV
In assay [8] the test system is HCT-116. Nature of the assay: Cell cycle arrest in human HCT116 cells assessed as accumulation at G1 phase at 20 uM after 48 hrs by propidium iodide staining-based flow cytometric analysis (reference value: 2.9%). The assay is classed as functional.
Assay [9] has as its system HCT-116. As to the kind of experiment: Induction of apoptosis in human HCT116 cells assessed as DNA content at sub-G1 phase at 20 uM after 24 hrs by annexin V-FITC/propidium iodide staining-based flow cytometric analysis (reference value: 92%). The assay is classed as functional.
In assay [10] the test system is HCT-116. As to the kind of experiment: Cytotoxicity against human HCT116 cells assessed as cell survival at 0.5 to 5 uM after 7 days by crystal violet staining assay. The following applies: HCT-116, 168 h. The class given is functional, cell-based.

With `COc1ccc2c(c1)C=C(C(=O)/C=C/c1c(OC)cc(OC)cc1OC)CO2`, the Activity in [1] was 99%; in [8], 29.5%; in assay [9], 1%. Moreover, the inhibition result in assay [2], in [3], in [5], in [6] and in assay [7] was “inactive” in each case. Besides, the inhibition (usually the drop in the measured response relative to a control, in per cent) in [4] worked out at 65%. Besides, the IC50 (in general, the midpoint of a concentration-inhibition curve) in [10] came to 0.0967 µM.
